Measured values: the NIST ThermoML archive (doi:10.1021/je7005743)

Assays:
[1] = 298.15 K; 101.33 kPa; Liquid; Pycnometric method
[2] = excess molar enthalpy (molar enthalpy of mixing); xn = mol fraction of the nth substance listed; conditions: 303.15 K, 101 kPa, Liquid, Flow calorimetry

CCO [ethanol]
Conditions	mass density [kg/m3]
[1]	785.32

CCC(C)O (centres undefined) [butan-2-ol]
Conditions	mass density [kg/m3]
[1]	802.57

CC(C)CC(C)(C)C [2,2,4-trimethylpentane]
Conditions	mass density [kg/m3]
[1]	687.91

CCCCO [butan-1-ol]
Conditions	mass density [kg/m3]
[1]	805.76

CC(C)CC(C)(C)C [2,2,4-trimethylpentane] + CCO
[2]
Conditions	excess molar enthalpy [kcal/mol]
x2 = 0.1291	0.13
x2 = 0.2383	0.152
x2 = 0.332	0.158
x2 = 0.4132	0.157
x2 = 0.4842	0.153
x2 = 0.5469	0.146
x2 = 0.6026	0.138
x2 = 0.6525	0.129
x2 = 0.6974	0.12
x2 = 0.738	0.11
x2 = 0.7749	0.1
x2 = 0.8086	0.0898
x2 = 0.8395	0.0797
x2 = 0.8679	0.069
x2 = 0.8942	0.0582
x2 = 0.9185	0.0473
x2 = 0.941	0.0357
x2 = 0.962	0.024
x2 = 0.9817	0.012

CC(C)O [propan-2-ol]
Conditions	mass density [kg/m3]
[1]	781.32

C=COCCC [propyl vinyl ether] + CCO
[2]
Conditions	excess molar enthalpy [kcal/mol]
x1 = 0.0265	0.014
x1 = 0.0543	0.0284
x1 = 0.0836	0.0441
x1 = 0.1145	0.0602
x1 = 0.147	0.0766
x1 = 0.1814	0.0936
x1 = 0.2178	0.111
x1 = 0.2564	0.129
x1 = 0.2973	0.146
x1 = 0.3409	0.164
x1 = 0.3873	0.179
x1 = 0.4368	0.195
x1 = 0.4899	0.209
x1 = 0.5468	0.221
x1 = 0.608	0.229
x1 = 0.6741	0.233
x1 = 0.7456	0.227
x1 = 0.8231	0.207
x1 = 0.9076	0.157

CCCO [propan-1-ol]
Conditions	mass density [kg/m3]
[1]	799.94

C=COCCC [propyl vinyl ether] + CC(C)CC(C)(C)C
[2]
Conditions	excess molar enthalpy [kcal/mol]
x1 = 0.0715	0.0253
x1 = 0.1398	0.0464
x1 = 0.2052	0.0635
x1 = 0.2678	0.0775
x1 = 0.3278	0.0878
x1 = 0.3853	0.0954
x1 = 0.4406	0.1
x1 = 0.4937	0.103
x1 = 0.5448	0.103
x1 = 0.5939	0.101
x1 = 0.6413	0.097
x1 = 0.6869	0.0917
x1 = 0.7309	0.0846
x1 = 0.7734	0.0758
x1 = 0.8144	0.0658
x1 = 0.854	0.0547
x1 = 0.8923	0.0418
x1 = 0.9294	0.0277
x1 = 0.9653	0.0138

C=COCCC [propyl vinyl ether]
Conditions	mass density [kg/m3]
[1]	762.96
